Data from PubChem BioAssay AID2060907 (Molecular Pharmacology Branch, DTP, NCI, 2025).

System: 388556-164-R-J1-PDC complex spheroid viability
Test: Anticancer human tumor 388556-164-R-J1-PDC patient-derived colon adenocarcinoma cell line growth inhibition [RAS]
Settings: for viability, T/C: stronger effect = lower value; active = viability on the fitted dose curve at most 10% of control; inactive = the rest
From the text: RAS pathway inhibitors in Combinations in Complex Spheroids
A high-throughput screen of multi-cell type tumor spheroids was designed to identify active combinations of RAS pathway inhibitors and targeted small molecules. Complex spheroids include a stromal component modeled by human endothelial cells (HUVEC) and fibroblasts modeled by human mesenchymal stem cells (MSCs). The concentration ranges selected for each drug and investigational agent were based upon clinically achievable concentrations if the clinical Cmax of the agent was known.
Compounds. The drugs and investigational agents: abemaciclib (NSC768073), cobimetinib (NSC768068), divarasib (GDC6063, NSC841802), docetaxel (NSC628503), GDC-1971 (RLY-1971, NSC841576), gemcitabine (NSC613327), inavolisib (NSC800729), ipatasertib (NSC767898), KB-0742 (NSC834161), MRTX-1133 (NSC836407), osimertinib (NSC779217), RMC-4630 (NSC839698), RMC-6236 (NSC851965), RMC-6291 (NSC852671), Ro-3306 (NSC812927), sapanisertib (NSC764658), SN-38 (NSC673596), staurosporine (NSC755774), SY5609 (NSC837396), and tovorafenib (DAY101, NSC766906), were obtained from the National Cancer Institute (NCI) Developmental Therapeutics Program Chemical Repository. The FDA-approved anticancer drug set is available from the NCI Developmental Therapeutics Program. […] The stock solutions were prepared in dimethyl sulfoxide (DMSO, Sigma-Aldrich, St. Louis, MO, cat. D2650) at 800-fold the tested concentration and stored at -70 degrees C prior to their use. All drugs and investigational agents were tested over a range starting from a high concentration at or near the clinical Cmax and decreasing in half-log increments. If the clinical Cmax for an agent had not been determined, the highest concentration tested was 10 microM.
Cell Culture. All cells were maintained in an incubator at 37 degrees C and 5% CO2 with 95% humidity. The PDC lines were cultured according to standard operating procedures established by the NCI PDMR. All PDCs were thawed and cultured in Matrigel-coated flasks prepared with a working solution of 1X Ham's F-12 nutrient mix, without supplementation (Invitrogen, Waltham, MA, cat. 11765054), 100 U/mL penicillin-streptomycin (Invitrogen, cat. 15140122), and 2.5% Matrigel (Corning Inc., Corning, NY, cat. 354248) for the first three passages. The 362531-283-R-J2-PDC and 782815-120-R-J1-PDC lines were cultured in 6C/Colon 1B media, which includes advanced DMEM/F-12 (Thermo Fisher Scientific, cat. 12634028), 10 mM HEPES (Thermo Fisher Scientific, cat. 15630080), 1X GlutaMAX supplement (Thermo Fisher Scientific, cat. 35050061), 0.1 mg/mL primocin (InvivoGen, San Diego, CA, cat. ant-pm-2), 10% defined fetal bovine serum, heat inactivated (HyClone Laboratories Inc., Logan, UT, cat. SH30070.03HI), 50% L-WRN conditioned media (ATCC, cat. CRL-3276), 1.25 mM N-Acetyl-L-cysteine (Sigma-Aldrich, cat. A9165), 10 mM nicotinamide (Sigma-Aldrich, cat. N0636), 1X B-27 supplement (Thermo Fisher Scientific, cat. 17504044), 1X N-2 supplement (Thermo Fisher Scientific, cat. 17502048), 50 ng/mL human EGF (Thermo Fisher Scientific, cat. PHG0311), and 10 microM Y-27632 dihydrochloride (Tocris Bioscience, cat. 1254). The K12877-001-R-J1-PDC line was cultured in 6I media, which includes all 6C/Colon 1B media plus 10 ng/mL human FGF-10 (PeproTech, cat. 100-26), 1 ng/mL human FGF-2 (PeproTech, cat. 100-18B), 1 µM prostaglandin E2 (Tocris Bioscience, cat. 2296), […] hydrocortisone (Sigma-Aldrich, cat. H4001), and […] bovine insulin (Sigma-Aldrich, cat. I6634). The K86415-001-R-J1-PDC line was cultured in 6D media, which includes all 6C/Colon 1B media components minus the L-WRN conditioned media. The 485176-168-R4-J1-PDC was cultured in PANC media, which includes all 6C/Colon 1B media plus 100 ng/mL human FGF-10 (PeproTech, cat. 100-26), 500 nM SB-431542 (Selleckchem, cat. S1067), and 10 nM gastrin (Tocris Bioscience, cat. 3006). […]
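Note: spheroids exposed to compound for 7 days before readout.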
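Throughout, for viability, T/C: 100% = DMSO vehicle control luminescence.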

CC(C)NCC(C(=O)N1CCN(c2ncnc3c2C(C)CC3O)CC1)c1ccc(Cl)cc1 (centres undefined) + CCn1c(-c2cccnc2C(C)OC)c2c3cc(ccc31)N1CCOC(CC(NC(=O)C(C(C)C)N(C)C(=O)C3(F)CCN(C(=O)C#CC(C)(C)N(C)C)CC3)C(=O)N3CCCC(N3)C(=O)OCC(C)(C)C2)C1
> 10 µM: IC50 (curve of first compound, second compound 0.000949 µM) | IC50 (curve of first compound, second compound 0.003 µM) | IC50 (curve of first compound, second compound 0.00949 µM) | IC50 (curve of first compound, second compound 0.03 µM) | IC50 (curve of first compound, second compound 0.0949 µM) | IC50 (curve of first compound, second compound 0.3 µM)
inactive: viability, T/C (second compound 0.000949 µM, first compound 0.0316 µM) 104% | viability, T/C (second compound 0.000949 µM, first compound 0.1 µM) 98% | viability, T/C (second compound 0.000949 µM, first compound 0.316 µM) 99.6% | viability, T/C (second compound 0.000949 µM, first compound 1 µM) 89.8% | viability, T/C (second compound 0.000949 µM, first compound 3.16 µM) 105% | viability, T/C (second compound 0.000949 µM, first compound 10 µM) 85.4% | viability, T/C (second compound 0.003 µM, first compound 0.0316 µM) 105% | viability, T/C (second compound 0.003 µM, first compound 0.1 µM) 104% | viability, T/C (second compound 0.003 µM, first compound 0.316 µM) 102% | viability, T/C (second compound 0.003 µM, first compound 1 µM) 99.1% | viability, T/C (second compound 0.003 µM, first compound 3.16 µM) 102% | viability, T/C (second compound 0.003 µM, first compound 10 µM) 81.8% | viability, T/C (second compound 0.00949 µM, first compound 0.0316 µM) 108% | viability, T/C (second compound 0.00949 µM, first compound 0.1 µM) 102% | viability, T/C (second compound 0.00949 µM, first compound 0.316 µM) 101% | viability, T/C (second compound 0.00949 µM, first compound 1 µM) 90.7% | viability, T/C (second compound 0.00949 µM, first compound 3.16 µM) 107% | viability, T/C (second compound 0.00949 µM, first compound 10 µM) 91.3% | viability, T/C (second compound 0.03 µM, first compound 0.0316 µM) 106% | viability, T/C (second compound 0.03 µM, first compound 0.1 µM) 111% | viability, T/C (second compound 0.03 µM, first compound 0.316 µM) 84.6% | viability, T/C (second compound 0.03 µM, first compound 1 µM) 98.4% | viability, T/C (second compound 0.03 µM, first compound 3.16 µM) 106% | viability, T/C (second compound 0.03 µM, first compound 10 µM) 81.5% | viability, T/C (second compound 0.0949 µM, first compound 0.0316 µM) 84.8% | viability, T/C (second compound 0.0949 µM, first compound 0.1 µM) 101% | viability, T/C (second compound 0.0949 µM, first compound 0.316 µM) 93.8% | viability, T/C (second compound 0.0949 µM, first compound 1 µM) 99.9% | viability, T/C (second compound 0.0949 µM, first compound 3.16 µM) 106% | viability, T/C (second compound 0.0949 µM, first compound 10 µM) 79.2% | viability, T/C (second compound 0.3 µM, first compound 0.0316 µM) 94.5% | viability, T/C (second compound 0.3 µM, first compound 0.1 µM) 102% | viability, T/C (second compound 0.3 µM, first compound 0.316 µM) 86.6% | viability, T/C (second compound 0.3 µM, first compound 1 µM) 87.8% | viability, T/C (second compound 0.3 µM, first compound 3.16 µM) 95.5% | viability, T/C (second compound 0.3 µM, first compound 10 µM) 72.6%

CCn1c(-c2cc(N3CCN(C)CC3)cnc2C(C)OC)c2c3cc(ccc31)-c1csc(n1)CC(NC(=O)C1CC1C)C(=O)N1CCCC(N1)C(=O)OCC(C)(C)C2 (centres undefined)
inactive: viability, T/C (compound 0.000949 µM) 99% [middle of 8 runs] | viability, T/C (compound 0.003 µM) 92% [middle of 8 runs] | viability, T/C (compound 0.00949 µM) 78.5% [middle of 8 runs] | viability, T/C (compound 0.03 µM) 62.5% [middle of 8 runs] | viability, T/C (compound 0.0949 µM) 45.2% [middle of 8 runs] | viability, T/C (compound 0.3 µM) 34.4% [middle of 8 runs]
68.6 nM [middle of 8 runs]: IC50 (compound alone, run of 08/26/2024)
